Drawing on patent US6703405B2, “Substituted 4-phenyltetrahydroisoquinolinium salts, process for their preparation, their use as a medicament, and medicament containing them” (Aventis Pharma Deutschland GmbH, priority 2001, dated 2004), this text covers IC50 for five compounds.

The target of the test is T1, rNHE3 (Rattus norvegicus, UniProt P26433).
T1 construct: expressed in transfected cells
Briefly: recovery of intracellular pH (pHi) after acidification, BCECF fluorescence. Particulars: pH recovery recorded for three minutes with NHE3; bicarbonate-free conditions. It counts as cell-based. As for the experimental part:
In this test, the recovery in the intracellular pH (pHi) after an acidification is ascertained, which is initiated if the NHE is capable of functioning, even under bicarbonate-free conditions. For this purpose, the pHi was determined using the pH-sensitive fluorescent dye BCECF (Calbiochem, the precursor BCECF-AM is employed). The cells were initially loaded with BCECF. The BCECF fluorescence was determined in a “Ratio Fluorescence Spectrometer” (Photon Technology International, South Brunswick, N.J., USA) at excitation wavelengths of 505 and 440 nm and an emission wavelength of 535 nm and converted into the pHi using calibration curves. The cells were incubated in NH4Cl buffer (pH 7.4) (NH4Cl buffer: 115 mM NaCl, 20 mM NH4Cl, 5 mM KCl, 1 mM CaCl2, 1 mM MgSO4, 20 mM Hepes, 5 mM glucose, 1 mg/ml BSA; a pH of 7.4 was adjusted with 1 M NaOH) even during the BCECF loading. The intracellular acidification was induced by adding 975 μl of an NH4Cl-free buffer (see below) to 25 μl aliquots of the cells incubated in NH4Cl buffer. The subsequent rate of pH recovery was recorded for two minutes with NHE1, five minutes with NHE2 and three minutes with NHE3. To calculate the inhibitory potency of the tested substances, the cells were initially investigated in buffers with which a complete or absolutely no pH recovery took place. For complete pH recovery (100%), the cells were incubated in Na^+-containing buffer (133.8 mM NaCl, 4.7 mM KCl, 1.25 mM CaCl2, 1.25 mM MgCl2, 0.97 mM Na2HPO4, 0.23 mM NaH2PO4, 5 mM Hepes, 5 mM glucose, a pH of 7.0 is adjusted with 1 M NaOH). To determine the 0% value, the cells were incubated in an Na^+-free buffer (133.8 mM choline chloride, 4.7 mM KCl, 1.25 mM CaCl2, 1.25 mM MgCl2, 0.97 mM K2HPO4, 0.23 mM KH2PO4, 5 mM Hepes, 5 mM glucose, a pH of 7.0 is adjusted with 1 M NaOH). The substances to be tested were made up in the Na^+-containing buffer. The recovery of the intracellular pH at each test concentration of a substance was expressed as a percentage of the maximum recovery. The IC50 value for the particular substance for the individual NHE subtypes was calculated from the pH recovery percentages using the Sigma-Plot program.

Each structure is given as a SMILES string. Counter-ions that a name gives are not always drawn.

T1 sequence (P26433 29-831): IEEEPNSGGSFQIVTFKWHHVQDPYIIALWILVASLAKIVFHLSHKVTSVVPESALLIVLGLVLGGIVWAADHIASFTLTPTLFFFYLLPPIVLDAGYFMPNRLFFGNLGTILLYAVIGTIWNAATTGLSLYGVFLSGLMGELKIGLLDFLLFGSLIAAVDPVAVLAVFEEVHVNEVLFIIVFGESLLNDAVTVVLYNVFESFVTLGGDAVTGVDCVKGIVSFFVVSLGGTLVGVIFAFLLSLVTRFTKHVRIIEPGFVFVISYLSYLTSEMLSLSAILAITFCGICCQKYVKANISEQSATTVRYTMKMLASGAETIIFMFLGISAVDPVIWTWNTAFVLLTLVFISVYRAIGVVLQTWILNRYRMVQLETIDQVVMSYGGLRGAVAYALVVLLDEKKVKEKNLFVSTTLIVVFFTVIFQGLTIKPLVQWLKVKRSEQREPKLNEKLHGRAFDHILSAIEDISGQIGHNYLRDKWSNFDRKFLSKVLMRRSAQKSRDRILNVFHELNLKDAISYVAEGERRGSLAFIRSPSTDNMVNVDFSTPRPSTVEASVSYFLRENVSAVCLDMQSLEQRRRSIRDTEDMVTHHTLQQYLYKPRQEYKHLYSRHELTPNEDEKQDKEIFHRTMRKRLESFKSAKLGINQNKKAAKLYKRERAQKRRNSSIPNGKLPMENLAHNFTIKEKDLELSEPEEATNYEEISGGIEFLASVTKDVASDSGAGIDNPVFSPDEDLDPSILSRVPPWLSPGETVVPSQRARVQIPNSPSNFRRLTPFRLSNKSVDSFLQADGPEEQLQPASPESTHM

`C[N+]1(C)Cc2c(Cl)cc(Cl)cc2C(c2ccc(S(N)(=O)=O)cc2)C1` (centres unmarked) [Example 2, 6,8-Dichloro-2,2-dimethyl-4-(4-sulfamoylphenyl)-1,2,3,4-tetrahydroisoquinolinium, Trifluoroacetate] had a 50% inhibitory concentration (IC50) of 0.9 µM.
Then `C[N+]1(C)Cc2c(Cl)cc(Cl)cc2C(c2ccccc2)C1` (centres unmarked) [Example 1, 6,8-Dichloro-2,2-dimethyl-4-phenyl-1,2,3,4-tetrahydroisoquinolinium, trifluoroacetate], with 0.23 µM; and `CC(=O)Nc1ccc(C2C[N+](C)(C)Cc3c(Cl)cc(Cl)cc32)cc1` (centres unmarked) [Example 3a, 4-(4-Acetylaminophenyl)-6,8-dichloro-2,2-dimethyl-1,2,3,4-tetrahydroisoquinolinium iodide], with 0.67 µM; and `C[N+]1(C)Cc2c(Cl)cc(Cl)cc2C(c2ccc(N)cc2)C1` (centres unmarked) [Example 4, 4-(4-Aminophenyl)-6,8-dichloro-2,2-dimethyl-1,2,3,4-tetrahydroisoquinolinium chloride, hydrochloride], with 0.03 µM.
The compound `CC(=O)Nc1ccc(C2C[N+](C)(C)Cc3c(Cl)cc(Cl)cc32)cc1` (single isomer, unassigned; (+)) [Example 3c, (+)-4-(4-Acetylaminophenyl)-6,8-dichloro-2,2-dimethyl-1,2,3,4-tetrahydroisoquinolinium chloride] showed a concentration for half-maximal inhibition (IC50) of 0.43 µM.

Broadly, the IC50 is the point on the concentration scale where inhibition reaches its midpoint.
